Literature values, collected in patent publication US20180193283A1, “TRANSDERMAL THERAPEUTIC SYSTEM CONTAINING ASENAPINE” (LTS LOHMANN Therapie-Systeme AG, priority 2016, published 2018).
Where two headings read alike, the source gives them in different places.

Assays:
[1] = very common side effects

bioavailability (if ingested): < 2%
terminal disposition half-life (sublingual administration, therapeutic doses): ≥ 24 h
bioavailability (when taken sublingually): 35%
SMILES: CN1C[C@H]2c3ccccc3Oc3ccc(Cl)cc3[C@@H]2C1 (relative stereo) [asenapine, (3aRS,12bRS)-rel-5-chloro-2,3,3a,12b-tetrahydro-2-methyl-1H-dibenz[2,3:6,7]oxepino[4,5-c]pyrrole]
Somnolence and anxiety, frequency [1]: ≥ 10 % of the patients
